The source of these data is publication PMC7617285, “Dehydrogenase versus oxidase function: the interplay between substrate binding and flavin microenvironment” (ACS catalysis, 2025).

Experiment [1] deals with T1, VAD (vanillyl-alcohol dehydrogenase from Marinicaulis flavus) (Hyphococcus luteus, UniProt A0A2S7K3M2, P151L).
T1 construct: gene CW354_13745; SUMO tag cleaved for crystals; covalent FAD on H387; dimer
Description: X-ray structure of soaked crystal. In kind it is binding. The note with it: 1 mM eugenol soak, 2 min; active site, flavin si side.

Experiment [2] deals with T2, nsVAO (vanillyl-alcohol oxidase from Novosphingobium sp.) (Novosphingobium sp., UniProt A0A3N9RU39).
T2 construct: gene EH199_11270; SUMO tag cleaved for crystals; non-covalent FAD
T2 sequence (A0A3N9RU39 1-543): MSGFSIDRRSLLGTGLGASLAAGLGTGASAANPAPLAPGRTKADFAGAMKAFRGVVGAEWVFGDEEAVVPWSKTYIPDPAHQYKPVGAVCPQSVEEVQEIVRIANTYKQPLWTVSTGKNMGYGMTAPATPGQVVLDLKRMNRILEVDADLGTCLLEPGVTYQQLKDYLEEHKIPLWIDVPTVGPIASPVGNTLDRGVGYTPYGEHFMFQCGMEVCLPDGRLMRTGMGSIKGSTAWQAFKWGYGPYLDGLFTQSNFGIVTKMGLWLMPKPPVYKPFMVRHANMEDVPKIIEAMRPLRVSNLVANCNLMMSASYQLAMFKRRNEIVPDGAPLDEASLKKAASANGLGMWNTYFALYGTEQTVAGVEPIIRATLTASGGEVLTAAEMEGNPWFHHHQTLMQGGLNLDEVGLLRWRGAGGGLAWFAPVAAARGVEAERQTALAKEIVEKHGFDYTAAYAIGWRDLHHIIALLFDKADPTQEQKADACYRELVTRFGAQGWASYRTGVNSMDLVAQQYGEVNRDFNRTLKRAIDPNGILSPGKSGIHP
Description: X-ray structure of soaked crystal. In kind it is binding. The note with it: […] vanillyl alcohol soak, […] min; active site.

Experiment [3] addresses T3, VAD (vanillyl-alcohol dehydrogenase from Marinicaulis flavus) (Hyphococcus luteus, UniProt A0A2S7K3M2).
T3 construct: gene CW354_13745; SUMO tag cleaved for crystals; covalent FAD on H387; dimer
T3 sequence (A0A2S7K3M2 1-521): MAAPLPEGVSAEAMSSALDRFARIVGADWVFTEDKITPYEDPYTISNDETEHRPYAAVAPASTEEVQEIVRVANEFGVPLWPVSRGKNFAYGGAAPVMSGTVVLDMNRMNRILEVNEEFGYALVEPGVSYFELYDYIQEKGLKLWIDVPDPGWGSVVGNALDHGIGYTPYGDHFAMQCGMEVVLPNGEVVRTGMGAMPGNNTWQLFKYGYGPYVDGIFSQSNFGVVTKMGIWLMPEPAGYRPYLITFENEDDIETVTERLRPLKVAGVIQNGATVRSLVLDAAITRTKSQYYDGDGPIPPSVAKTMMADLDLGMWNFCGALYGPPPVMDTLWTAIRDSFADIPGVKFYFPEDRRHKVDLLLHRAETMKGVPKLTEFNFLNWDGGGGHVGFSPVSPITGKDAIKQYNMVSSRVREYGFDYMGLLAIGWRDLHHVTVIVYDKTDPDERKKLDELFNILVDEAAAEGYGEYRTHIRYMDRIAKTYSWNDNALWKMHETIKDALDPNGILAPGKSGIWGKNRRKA
Description: anaerobic stopped-flow reductive half-reaction. In kind it is biochemical. The note with it: 25 °C, 50 mM potassium phosphate pH 7.5, 150 mM NaCl, oxidized enzyme. From the text:
(§1) anaerobic stopped-flow reductive half-reaction on VAD (vanillyl-alcohol dehydrogenase from Marinicaulis flavus)

Experiment [4] has as its target T1, VAD (vanillyl-alcohol dehydrogenase from Marinicaulis flavus). Description: anaerobic stopped-flow reductive half-reaction. The note with it: 25 °C, 50 mM potassium phosphate pH 7.5, 150 mM NaCl, oxidized enzyme. It is filed as biochemical.
Source text: as §1

Experiment [5] has as its target T2, nsVAO (vanillyl-alcohol oxidase from Novosphingobium sp.). Description: X-ray structure. In kind it is binding. The note with it: non-covalently bound FAD.
The target of experiment [6] is T3, VAD (vanillyl-alcohol dehydrogenase from Marinicaulis flavus). Briefly: X-ray structure. In kind it is binding. The note with it: covalent (H387).

T1 sequence (A0A2S7K3M2 entry or part of it P151L): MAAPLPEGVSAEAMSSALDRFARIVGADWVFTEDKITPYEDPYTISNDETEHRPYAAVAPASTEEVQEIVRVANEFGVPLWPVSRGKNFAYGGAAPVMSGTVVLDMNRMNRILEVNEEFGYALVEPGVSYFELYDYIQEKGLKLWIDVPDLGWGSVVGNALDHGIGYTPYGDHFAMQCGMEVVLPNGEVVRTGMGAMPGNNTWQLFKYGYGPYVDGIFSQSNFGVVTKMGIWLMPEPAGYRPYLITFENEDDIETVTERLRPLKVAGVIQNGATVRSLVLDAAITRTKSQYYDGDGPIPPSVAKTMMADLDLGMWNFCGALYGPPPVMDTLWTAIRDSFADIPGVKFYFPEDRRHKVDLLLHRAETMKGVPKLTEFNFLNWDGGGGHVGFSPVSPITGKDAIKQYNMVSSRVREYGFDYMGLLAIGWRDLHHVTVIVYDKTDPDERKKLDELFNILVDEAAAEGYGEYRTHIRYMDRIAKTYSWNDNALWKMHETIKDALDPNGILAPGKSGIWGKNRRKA

On to `C=CCc1ccc(O)c(OC)c1` [Eugenol], for which, in experiment [1], the “X-ray structure of soaked crystal” value was “P151L VAD-eugenol, wild type nsVAO-vanillyl alcohol and T181D nsVAO-vanillin complexes were prepared by soaking crystals”.
`COc1cc(CO)ccc1O` [Vanillyl alcohol]: in experiment [2], the “X-ray structure of soaked crystal” value is on record as “Vanillyl alcohol bound to wild type nsVAO is shown with blue carbons”. The Kd in experiment [3] was 24.2 ± 3.3 µM; in experiment [4], 1060 ± 80 µM.
For `Cc1cc2nc3c(=O)[nH]c(=O)nc-3n(C[C@H](O)[C@H](O)[C@H](O)COP(=O)(O)OP(=O)(O)OC[C@H]3O[C@@H](n4cnc5c(N)ncnc54)[C@H](O)[C@@H]3O)c2cc1C` [FAD], the X-ray structure result in experiment [5] is reported as “Its crystal structure confirms that FAD is non-covalently bound”; in experiment [6], “FAD carbons are in yellow, wild-type carbons in orange”.
